According to patent US20070032556A1, “Aromatic polyamine derivative” (priority 2003, published 2007):
Where two headings read alike, the source gives them in different places. One block for each molecule: values may come before it.

Test: solubility of the monomers or polymer in the coating solvent
Assay type: physicochemical
Experimental: In 100 g of mesitylene were dissolved 2.48 g (8 mmol) of 1,3,5-adamantanetricarboxylic acid trimethyl ester prepared in Synthesis Example 1 and 6.42 g (12 mmol) of 3,3′-diaminobenzidinetetracyclohexanoimine[N,N′,N″,N′″-tetracyclohexylidene-3,4,3′,4′-biphenyltetramine] prepared in Example 5 at room temperature in a nitrogen atmosphere and thereby yielded a coating composition having a monomer concentration of 8.2 percent by weight. The coating composition was passed through a filter with a pore size of 0.1 micron and was applied to an 8-inch silicon wafer by spin coating. This was heated at 300° C. in a nitrogen atmosphere for thirty minutes, was further heated at 400° C. for thirty minutes, and thereby yielded a film. The infrared absorption spectrum of the resulting polymer film was determined to find that the target crosslinked polybenzimidazole film was formed as shown in the infrared absorption spectral data in FIG. 1. The film has a film thickness of 300 nm.
The procedure of Example 15 was repeated, except for using the same amounts as in Example 15 of 1,3,5-adamantanetricarboxylic acid and 3,3′-diaminobenzidine instead of 1,3,5-adamantanetricarboxylic acid trimethyl ester and N,N′,N″,N′″-tetracyclohexylidene-3,4,3′,4′-biphenyltetramine, respectively, to find the solubility in the solvent (mesitylene) was low. Consequently, a coating composition having a monomer concentration of 1.2 percent by weight was prepared by the procedure of Example 15, except for using 0.54 g (2 mmol) of 1,3,5-adamantanetricarboxylic acid and 0.64 g (3 mmol) of 3,3′-diaminobenzidine. By using this coating composition, a polymer film was prepared by the procedure of […], and the infrared absorption spectrum of the polymer film was determined to find that the target crosslinked polybenzimidazole film was formed. The film has a film thickness of less than 20 nm.
A coating composition having a monomer concentration of 14.7 percent by weight was prepared by dissolving 4.42 g (12 mmol) of 1,3,5,7-adamantanetetracarboxylic acid tetramethyl ester and 12.83 g (24 mmol) of 3,3′-diaminobenzidinetetracyclohexanoimine[N,N′,N″,N′″-tetracyclohexylidene-3,4,3′,4′-biphenyltetramine] prepared according to Example 5 in 100 g of methyl isobutyl ketone (MIBK) at room temperature in a nitrogen atmosphere. The coating composition was passed through a filter with a pore size of 0.1 micron and was applied to an 8-inch silicon wafer by spin coating. This was heated at 300° C. in a nitrogen atmosphere for thirty minutes and further heated at 400° C. for thirty minutes to yield a film. The infrared absorption spectrum of the resulting polymer film was determined to find that the target crosslinked polybenzimidazole film was formed. The film has a film thickness of 400 nm.
The procedure of Example 16 was repeated, except for using the same amounts as in Example 16 of 1,3,5,7-adamantanetetracarboxylic acid and 3,3′-diaminobenzidine instead of 1,3,5,7-adamantanetetracarboxylic acid tetramethyl ester and N,N′,N″,N′″-tetracyclohexylidene-3,4,3′,4′-biphenyltetramine, respectively, to find that the solubility in the solvent (methyl isobutyl ketone: MIBK) was low. Consequently, a coating composition having a monomer concentration of 1.5 percent by weight was prepared by the procedure of Example 16, except for using 0.62 g (2 mmol) of 1,3,5,7-adamantanetetracarboxylic acid and 0.86 g (4 mmol) of 3,3′-diaminobenzidine. By using this coating composition, a polymer film was prepared by the procedure of Example 16, and the infrared absorption spectrum of the film was determined to find that the target crosslinked polybenzimidazole film was formed. The film has a film thickness of less than 20 nm. […]

SMILES: Nc1ccc(-c2ccc(N)c(N)c2)cc1N [3,3′-diaminobenzidine]
solubility in the solvent (mesitylene) (same amounts as in Example 15 in 100 g mesitylene, room temperature, nitrogen atmosphere, acid and amine monomer dissolved together): low
solubility in the solvent (methyl isobutyl ketone: MIBK) (same amounts as in Example 16 in 100 g MIBK, room temperature, nitrogen atmosphere, acid and amine monomer dissolved together): low
solubility in the solvent (dioxane) (same amounts as in Example 17 in 100 g dioxane, room temperature, nitrogen atmosphere, together with 1,3,5-adamantanetricarboxylic acid): low

solubility in the solvent (mesitylene): low
SMILES: O=C(O)C12CC3CC(C(=O)O)(C1)CC(C(=O)O)(C3)C2 [1,3,5-adamantanetricarboxylic acid]

solubility in the solvent (methyl isobutyl ketone: MIBK): low
SMILES: O=C(O)C12CC3(C(=O)O)CC(C(=O)O)(C1)CC(C(=O)O)(C2)C3 [1,3,5,7-adamantanetetracarboxylic acid]

SMILES: Nc1ccc(-c2ccc(N)c(O)c2)cc1O [3,3′-dihydroxybenzidine]
solubility in the solvent (propylene glycol monomethyl ether: PGME) (same amounts as in Example 19 in 100 g PGME, room temperature, nitrogen atmosphere, together with 1,3,5-adamantanetricarboxylic acid): low
